From patent publication US20260240851A1, “Treatment of Parkinson's Disease in a Patient Using a Glucocerebrosidase Activator” (BIAL - R&D Investments, S.A., priority 2023, published 2026)

Key:
GCase = assay: Phase 2 study: GCase activity in whole blood (dried blood spot, FIA-MS/MS); assay type: in vivo, human; settings: vs placebo
Experimental: In addition, the PD biomarkers and GCase activity in whole blood samples are measured at baseline and week 78 (preferably baseline and weeks 4, 26, 52 and 78). This may include biomarkers of lysosomal activity (e.g., glucosylsphingosine (GluSph) and/or glucosylceramide (GluCer)). Methods of measuring lysosomal activity (e.g., GluSph and/or GluCer) are described above. A method of measuring GCase activity is described below. Magnetic resonance imagining (MRI) scans are performed at baseline and week 78 for a cohort of GBA-PD subjects.
The preferred method of measuring GCase activity in whole blood is described below, and also in Totorelli, 2016, which is incorporated herein by reference:
A 5-plex cocktail assay for GCase, acid a-glucosidase (GAA), galactocerebrosidase (GALC), a-galactosidase A (GLA), and a-L-iduronidase (IDUA) activity is prepared. Vials containing the substrate (S) and internal standards (IS) for GCase and GAA are reconstituted with methanol and transferred to the GALC S+IS vial followed by evaporation. The GLA S+IS vial is reconstituted with 1.8 mL of 96 g/L sodium taurocholate in water and then transferred to the dry GALC S+IS vial, which is then heated to 60° C. to dissolve all solids. […]

[1] = LTI-291-004: fMRI, FDG-PET and functional outcome measures; assay type: in vivo, human
Experimental: This study was a Phase 1B, randomized, double-blind, placebo-controlled, multiple oral dose study of Compound A in 14 subjects (aged 51 to 81 years) with GBA-PD. The objectives of this study were to investigate the safety, tolerability, and PK of multiple once-daily oral administration of Compound A and to explore the accompanying pharmacodynamic changes. Subjects received once-daily oral doses of 10 mg (n=6) or 60 mg (2×30 mg capsules) (n=6) Compound A or placebo (n=2) for 28 consecutive days. PK samples were measured once on Day 7 and Day 14 and 4 times after the last dose on Day 28. Plasma concentrations were summarized at each time point, and no PK parameters were estimated. The PD evaluations included fMRI measures; FDG-PET to determine the metabolic rate of glucose in specific regions of the brain; and functional outcome measures (MDS-UPDRS Part III and the MMSE). GluCer, GluSph, and LacCer and other sphingolipids were measured in PBMCs and plasma as biomarkers of pharmacological effect.

clinical = settings: both, human, plasma, 60 mg; for AUC(0-t): Sinemet portion, geometric mean
Experimental: This was a Phase 1, non-randomized, open-label, 2-cohort, cross-over, DDI study in healthy male and female subjects.
In Cohort 1, a single oral dose 100 mg/25 mg levodopa-carbidopa (Sinemet®) IR was administered alone on Day 1.

[2] = BIA 28-6156-107: safety and tolerability; assay type: in vivo, human

With CCCCCO[C@H]1CC[C@H](NC(=O)c2cnn3c(C)cc(C)nc23)CC1 [Compound A, 5,7-dimethyl-N-((1S*,4S)-4-(pentyloxy)cyclohexyl)pyrazolo[1,5-a]pyrimidine-3-carboxamide] the “Mean change in GCase activity in whole blood samples” value (GCase) was “higher”, the “default mode network (DMN) assessed by fMRI” value ([1]; 10 or 60 mg daily for 28 days, differences not statistically significant) was “improved the default mode network” and the “MDS-UPDRS III and MMSE scores” value ([1]; Day 28 vs Day -1, all subjects) was “unchanged”. It also gave a Cmax (clinical) of 1940 ng/mL, a Tmax (clinical) of 2 h and an AUC(0-t) (clinical; AUC0-24, 60 mg Compound A alone) of 22800 ng·h/mL. The AUC(0-t) (clinical; AUC0-t, 60 mg Compound A alone) was 22700 ng·h/mL, the AEs ([2]; 60 mg Compound A with 25 mg/100 mg immediate-release carbidopa-levodopa) was “No AEs were reported” and the “subjects reporting AEs” value ([2]; 60 mg Compound A with 300 mg extended-release carbamazepine) was 25.0%. The “subjects reporting AEs” value ([2]; after 60 mg Compound A alone, 12 subjects) was 16.7%, the SAEs ([2]; in vivo) was “No SAEs were reported” and the “vital signs, physical examinations, ECG parameters, C-SSRS” value ([2]; in vivo) was “no clinically significant safety observations”.
